Assays:
IL-6 [1] = test: IL-6 secretion of BEAS-2B cells treated with Diesel Particulate Matter; type: cell-based, human; details: for IL-6 / IL-6 % of PM + DMSO: 24 h
Description: (§1) The human bronchial epithelial cell line BEAS-2B was from ATCC (American Type Culture Collection, Manassas, Va.) and cultured in Bronchial Epithelial cell Growth Medium (BEGM, Lonza, Wakersville, Md.) in CellBIND® surface plastic flasks (Corning Inc., Corning, N.Y.). The adenocarcinomic human alveolar basal epithelial A549 cell line was obtained from ATCC and cultured in Kaighn's Modification of Ham's F-12 Medium (F-12K medium) (Life Technologies, USA), supplemented with 10% FBS (Sigma, Saint-Louis, Mo.). These cells were cultured at 37° C. in a humidified atmosphere containing 5% CO2.
(§2) BEAS-2B cells were seeded in 12-well CellBIND® surface culture plates (Corning Inc.) at 3 to 4×10^5 cells per well. A549 cells were seeded in 12-well plates at 2×10^5 cells per well.
(§3) Diesel Particulate Matter (Standard Reference Material SRM 1650b, National Institute of Standards & Technology, NIST, Gaithersburg, Md.) at 80 mg/ml DMSO (100%) were sonicated for 5 min and thereafter diluted 400 fold in medium. This dilution was twofold further diluted for the assay.
(§4) After 24 h, cells were treated with the diluted Diesel Particulate Matter at 100 μg/ml and in the presence of different concentrations of Withania somnifera extracts, other plant extracts, fractions and compounds as indicated. The final DSMO concentrations were 0.175%.
(§5) Untreated cells or cells treated with 0.175% DMSO were used as controls. After 24 h, cell supernatants were collected.
(§6) The concentrations of IL-6 and IL-8 in the supernatants were determined by Luminex kits (BIO-RAD Laboratories, Hercules, Calif.) and used in the LiquiChip Workstation IS 200 (Qiagen, Hilden, Germany). The data were evaluated with the LiquiChip Analyser software (Qiagen).

IL-6 [2] = test: IL-6 secretion of A549 cells treated with Diesel Particulate Matter; type: cell-based, human; details: for IL-6 / IL-6 % of PM + DMSO: Table 5, A549, 24 h
Description: as §1, §2, §3, §4, §5, §6

IL-8 = IL-8 secretion of A549 cells treated with Diesel Particulate Matter; type: cell-based, human; details: for effect on IL-8 secretion (in words): A549, PM-induced; for IL-8 / IL-8 % of PM + DMSO: Table 7, A549, 24 h
Description: as §1, §2, §3, §4, §5, §6

MCP-1 = MCP-1 secretion of A549 cells treated with Diesel Particulate Matter; type: cell-based, human; details: for effect on PM-induced MCP-1 secretion (in words): A549; for MCP-1 / MCP-1 % of PM + DMSO: Table 9, A549, 24 h
Description: The human bronchial epithelial cell line BEAS-2B was from ATCC (American Type Culture Collection, Manassas, Va.) and cultured in Bronchial Epithelial cell Growth Medium (BEGM, Lonza, Wakersville, Md.) in CellBIND® surface plastic flasks (Corning Inc., Corning, N.Y.). The adenocarcinomic human alveolar basal epithelial A549 cell line was obtained from ATCC and cultured in Kaighn's Modification of Ham's F-12 Medium (F-12K medium) (Life Technologies, USA), supplemented with 10% FBS (Sigma, Saint-Louis, Mo.). These cells were cultured at 37° C. in a humidified atmosphere containing 5% CO2. BEAS-2B cells were seeded in 12-well CellBIND® surface culture plates (Corning Inc.) at 3 to 4×10^5 cells per well. A549 cells were seeded in 12-well plates at 2×10^5 cells per well. […] This dilution was twofold further diluted for the assay. After 24 h, cells were treated with the diluted Diesel Particulate Matter at 100 μg/ml and in the presence of different concentrations of Withania somnifera extracts, other plant extracts, fractions and compounds as indicated. The final DSMO concentrations were 0.175%. Untreated cells or cells treated with 0.175% DMSO were used as controls. After 24 h, cell supernatants were collected.

PGE2 = PGE2 secretion of BEAS-2B cells treated with Diesel Particulate Matter; type: cell-based, human; details: for effect on PGE2 secretion compared to PM with DMSO (in words): PM-treated BEAS-2B; for PGE2 / PGE2 % of PM + DMSO: Table 10, BEAS-2B, 24 h
Description: as §1, §2, §3, §4, §5
Secreted PGE2 was determined by Enzyme Immuno Assay (EIA) (Cayman Chemicals, Ann Harbor, […].).

Nrf2 = test: Luciferase reporter assay using H411E-ARE8L cells (Nrf2 activation); details: for Nrf-2 activity, Normalized data: R-sulforaphane set to 1.0, DMSO 0
Method: Luciferase Reporter Assay Using H411E-ARE8L Cells:
The medium for H411E-ARE8L cells was Dulbecco's Modified Eagle Medium (DMEM) high glucose containing heat inactivated 10% fetal bovine Serum (FBS). The media was exchanged every two to three-days. The DMEM assay medium used charcoal treated FBS (DMEMct). The transactivation assay was performed in 96 well plates. The plates were seeded with approximately 40′000 cells per well in 100 μl DMEMct and incubated over night at 37° C. Then the test compounds were diluted in DMEDct and given to the cells as described below. The cells were incubated for at least further 16 h at 37° C. and 5% CO2. Cells were equilibrated to room temperature. Lysis of the cells was done by adding 100 μL lysis solution, Steady-Glo© luciferase buffer according to the manufacturer (Promega) containing 0.5 mM DTT per well and incubated for 10 min at room temperature with gentle shaking. The luminescence was measured within 2 hours after incubation on a luminometer (Mithras, Berthold Technologies).
The negative control were cells in 0.5% DMSO.
All extracts, fractions and pure compounds were tested for concentrations that induce toxicity. Non-toxic concentrations were then selected for treating cells as describes in the methods section.

NQO1 = test: Endogenous Nrf2 activation assay using BEAS-2B cells: NQO1 mRNA expression; type: cell-based, human; details: 0.1% DMSO set to 1
Method: (§7) The human bronchial epithelial cell line BEAS-2B was from ATCC (American Type Culture Collection, Manassas, Va.) and cultured in Bronchial Epithelial cell Growth Medium (BEGM, Lonza, Wakersville, Md.) in CellIBIND® surface plastic flasks (Corning Inc., Corning, N.Y.). BEAS-2B cells were seeded in 6-well CellIBIND® surface culture plates (Corning Inc.) at 1×10^6 cells per well and incubated at 37° C. with 5% CO2 for 24 hours.
(§8) A 100 mM R-Sulforaphane stock solution was prepared in DMSO (ABCAM, Cat. No. ab141971, Lot GR303041-2). The R-Sulforaphane stock was diluted in DMSO to obtain the desired final concentrations. Withania somnifera extract (NIG-018911) stock solution was prepared in DMSO.
(§9) After 24 h, cells were treated with different concentrations of Withania somnifera extract (5 μg/ml, 10 μg/ml, 25 μg/ml), R-Sulforaphane (2 μM, 5 μM, 10 μM) or DMSO (0.1%) and incubated at 37° C. with 5% CO2 for 4 hrs or 24 hrs. Each treatment was done in triplicate.
(§10) RNA extraction, cDNA synthesis and TaqMan based real-time PCR: After 4 hrs and 24 hrs cells were harvested in RLT buffer, RNA isolation was done using the RNeasy Mini Kit from Qiagen (Cat. No. 74106). cDNA was prepared with 2500 ng total RNA using SuperScript™ First-Strand Synthesis System for RT-PCR (Invitrogen, Cat. No. 11904-018)
(§11) In a 20 μL PCR reaction, a total input of […] of cDNA was amplified in the ABI 7900 HT real-time PCR System (Applied Biosystems) using the TaqMan® Fast Advanced Master Mix (LifeTechnologies Cat. No. 4444557), 50 nM primers, and 100 nM probe (VIC-TAMRA-labeled) for the 18S rRNA internal control
(§12) and 300 nM primers and 100 nM probe (FAM-TAMRA-labeled) for the gene of interest human
(§13) The thermal cycling profile consisted of 2 min at 50° C. for Uracil-N-glycosylase activation, 95° C. for 20 seconds for polymerase activation followed by 40 cycles 95° C. for 1 second and primer annealing at 60° C. for 20 seconds.
(§14) Relative gene expression was performed by subtracting threshold cycles (CT) for ribosomal RNA from the CT of the targeted gene (ΔCT). Relative mRNA levels were then calculated as 2^−ΔΔCT, where ΔΔCT refers to the ΔCT of […].

HMOX = test: Endogenous Nrf2 activation assay using BEAS-2B cells: HMOX mRNA expression; type: cell-based, human; details: 0.1% DMSO set to 1
Method: as §7, §8, §9, §10, §11, §12, §13, §14

[3] = Table 3, 10 μg/ml + PM 100 μg/ml
[4] = Table 3, 5 μg/ml + PM 100 μg/ml

Compound | IL-6 (IL-6 [1]; [3]) [pg/mL] | IL-6 % of PM + DMSO (IL-6 [1]; [3]) [%] | effect on PM-induced IL-6 secretion (in words) (IL-6 [2]; A549) | IL-6 (IL-6 [2]; 10 μg/ml + PM 100 μg/ml) [pg/mL] | IL-6 % of PM + DMSO (IL-6 [2]; 10 μg/ml + PM 100 μg/ml) [%] | effect on IL-8 secretion (in words) (IL-8) | IL-8 (IL-8; 10 μg/ml + PM 100 μg/ml) [pg/mL] | IL-8 % of PM + DMSO (IL-8; 10 μg/ml + PM 100 μg/ml) [%] | effect on PM-induced MCP-1 secretion (in words) (MCP-1) | MCP-1 (MCP-1; 10 μg/ml + PM 100 μg/ml) [pg/mL] | MCP-1 % of PM + DMSO (MCP-1; 10 μg/ml + PM 100 μg/ml) [%] | effect on PGE2 secretion compared to PM with DMSO (in words) (PGE2) | PGE2 (PGE2; 10 μg/ml + PM 100 μg/ml) [pg/mL] | PGE2 % of PM + DMSO (PGE2; 10 μg/ml + PM 100 μg/ml) [%] | Nrf-2 activity, Average (Nrf2; Conc. final 22.73 μg/ml) | Nrf-2 activity, Normalized data (Nrf2; Conc. final 22.73 μg/ml) | other results
12-deoxywithastramonolide | 51.9 | 207 | decrease | 9.5 | 75 | significant inhibition | 208.3 | 69 | significant decrease | 646.3 | 74 | significant decrease | 28.3 | 74 | 33869 relative units of luciferase fluorescence | 1.1701 | 
CO[C@H]1CC(=O)[C@]2(C)[C@H]3CC[C@]4(C)[C@@H]([C@H](C)[C@H]5CC(C)=C(CO)C(=O)O5)CC[C@H]4[C@@H]3C[C@H]3O[C@]32[C@H]1O [Quresimine A, quresimine A] |  |  | decrease |  |  | significant inhibition |  |  | low, but non-significant decrease |  |  | borderline |  |  |  |  | IL-6 (IL-6 [1]; [4]): 23.5 pg/mL; IL-6 % of PM + DMSO (IL-6 [1]; [4]): 94%; IL-6 (IL-6 [2]; 5 μg/ml + PM 100 μg/ml): 9.5 pg/mL; IL-6 % of PM + DMSO (IL-6 [2]; 5 μg/ml + PM 100 μg/ml): 75%; IL-8 (IL-8; 5 μg/ml + PM 100 μg/ml): 242 pg/mL; IL-8 % of PM + DMSO (IL-8; 5 μg/ml + PM 100 μg/ml): 80%; MCP-1 (MCP-1; 5 μg/ml + PM 100 μg/ml): 796.7 pg/mL; MCP-1 % of PM + DMSO (MCP-1; 5 μg/ml + PM 100 μg/ml): 92%; PGE2 (PGE2; 5 μg/ml + PM 100 μg/ml): 33.2 pg/mL; PGE2 % of PM + DMSO (PGE2; 5 μg/ml + PM 100 μg/ml): 87%
C[S@@+]([O-])CCCCN=C=S [R-Sulforaphane, R-sulforaphane] |  |  |  |  |  |  |  |  | clear inhibition |  |  |  |  |  |  |  | Relative mRNA expression level at 4 h (NQO1) (NQO1; 2 μM): 1.60; Relative mRNA expression level at 24 h (NQO1) (NQO1; 2 μM): 4.66; Relative mRNA expression level at 4 h (NQO1) (NQO1; 5 μM): 2.26; Relative mRNA expression level at 24 h (NQO1) (NQO1; 5 μM): 7.62; Relative mRNA expression level at 4 h (NQO1) (NQO1; 10 μM): 1.78; Relative mRNA expression level at 24 h (NQO1) (NQO1; 10 μM): 8.77; Relative mRNA expression level at 4 h (HMOX) (HMOX; 2 μM): 9.48; Relative mRNA expression level at 24 h (HMOX) (HMOX; 2 μM): 2.63; Relative mRNA expression level at 4 h (HMOX) (HMOX; 5 μM): 22.44; Relative mRNA expression level at 24 h (HMOX) (HMOX; 5 μM): 5.23; Relative mRNA expression level at 4 h (HMOX) (HMOX; 10 μM): 27.43; Relative mRNA expression level at 24 h (HMOX) (HMOX; 10 μM): 7.12; effect on PM-induced IL-6 secretion (in words) (IL-6 [1]; concentration not given): significantly reduced; reduction of PM-induced IL-6 secretion (IL-6 [2]; A549, concentration not given): about twofold; reduction of PM-induced cytokine secretion (IL-8 paragraph) (IL-8; A549, concentration not given): twofold; Nrf-2 activity, Average (Nrf2; Conc. final 4.55 μg/ml): 29384 relative units of luciferase fluorescence; Nrf-2 activity, Normalized data (Nrf2; Conc. final 4.55 μg/ml): 1.0000
CC1=C(C)C(=O)O[C@@H]([C@](C)(O)[C@H]2CC[C@H]3[C@@H]4[C@@H]5O[C@@H]5[C@@]5(O)CC=CC(=O)[C@]5(C)[C@H]4CC[C@]23C)C1 [Withanolide A, withanolide A] | 32.8 | 131 | decrease | 15.2 | 120 | no effect | 313.7 | 103 | low, but non-significant decrease | 790.7 | 91 |  | 34.7 | 91 | 4677 relative units of luciferase fluorescence | 0.0629 | 

From patent US20200129531A1, “USE OF WITHANIA SOMNIFERA EXTRACT TO PROTECT AGAINST AIR POLLUTION RELATED DISEASES” (DSM IP Assets B.V., priority 2017, published 2020)
